From patent US9278081B2, “Extracts from Eucalyptus camaldulensis for the treatment of hyperglycemia and hypertension” (The University of the West Indies, priority 2012, dated 2016)
Several values for one entry are separate records, joined by “and”; a condition that tells them apart may be missing. Equal values may be shown once. Entries after “also recorded” stand apart in the source; their conditions may differ.

Key:
[1] = general description of eicosane; cited from earlier work
[2] = tested on: normoglycaemic Sprague-Dawley rats; experiment: Oral Glucose Tolerance Test (OGTT), samples administered intravenously; format: in vivo; settings: for effect on blood glucose concentration (in words): IV OGTT vs DMSO control and/or metformin; for Hypoglycaemic effect compared with control: combinations of oleic:palmitic acids, IV OGTT vs DMSO
Protocol: Crude hexane, ethyl acetate, and methanol extracts (50 mg/kg BW) were administered intravenously to normoglycaemic Sprague-Dawley rats. The Oral Glucose Tolerance Test (OGTT) was then carried out using the Accu-Check Advantage II glucose kit to examine their effect on blood glucose concentration. […] A comparison was carried out using metformin (25 mg/kg BW).
Crude hexane, ethyl acetate, and methanol extracts (50 mg/kg BW) were administered intravenously to normoglycaemic Sprague-Dawley rats. The Oral Glucose Tolerance Test (OGTT) was then carried out using the Accu-Check Advantage II glucose kit to examine their effect on blood glucose concentration.
Crude hexane, ethyl acetate, and methanol extracts (50 mg/kg BW) were administered intravenously to normoglycaemic Sprague-Dawley rats.
The dosage of the extracted fr1dbe (30 mg/kg BW) and the glucose loads (1.75 g/kg BW were administered to the rats intravenously and orally, respectively. The extract was administered intravenously in order to reduce the amounts of sample that were used for the bioassays. The volume of the negative control/carrier agent (DMSO) used was approximately 0.3 mL.
In order to determine the efficacy of the isolated compounds, a known oral hypoglycaemic drug, metformin was used to do a comparison. Metformin was obtained from Sigma-Aldrich (Cat. No. d15, 095-9) and OGTTs were done via intravenous (FIGS. 7-13) and oral administration (FIGS. 14-16).

Solubility = format: physicochemical
rats [3] = experiment: Post-prandial blood insulin level, Mercodia ELISA; format: in vivo; settings: 30 mg/kg BW IV in DMSO
Protocol: This was carried out using the Mercodia ELISA Diagnostic kit in order to deduce the plasma insulin and glucagon levels respectively. These levels were used to determine the effect of the compound fr1dbe, on glucose homeostasis, when compared with a positive methformin and a DMSO negative control.
The samples were administered intravenously and orally at their respective dosages. After 15 minutes 75 mg/kg BW of sodium pentabarbitol was administered to the rats via an intraperitoneal injection. Blood samples were then obtained from the renal artery of the rats and collected in the (red) vacutainer for the serum sample. The samples were then centrifuged at 3,000 r.p.m. for 10 minutes and stored at −20° C. until used.
The Mercodia ELISA is a direct technique utilizing two monoclonal antibodies of the insulin molecule, one of which binds to the microtitre well, while the other binds to the insulin within the sample. When the unbound antibody is removed, a reaction with 3,3′,5,5′-tetramethylbenzidine aids in detection and spectophotometric analysis after the reaction is stopped.
The enzyme conjugate solution and wash buffer solution were prepared prior to the experiment. 10 μL of the calibrators, samples and controls were pipetted into the microtitre wells in duplicate. […] The ELISA plate was read immediately at an optical density at 450 nm and the results calculated. […]

rats [4] = experiment: Haemodynamic parameters (blood pressure and heart rate), non-invasive CODA machine; format: in vivo; settings: for effect on mean arterial blood pressure (in words): vs DMSO; for effect on systolic blood pressure (in words): vs DMSO and captopril
Source text: A non-invasive method was used to measure the blood pressure and heart rate of the rats using the CODA machine from Kent Scientific Corporation. The rats were placed in a restraint (rat holder), to reduce agitation, and then placed on a warming pad of the machine (to reduce anxiety). The occlusion and volume pressure recording cuffs (O-cuff and VPR-cuff respectively) were placed onto the tail of the animal in that order respectively, in order to record the readings. The O-cuff terminates blood flow to the tail and then dilates slowly allowing for the physiological readings to be obtained from the returning blood flow, which is determined by the VPR sensor. The VPR-cuff is then used to measure the arterial pulsations as blood returns to the tail and it begins to swell. As the tail begins to swell the systolic blood pressure is measured, while the diastolic blood pressure is calculated when swelling stops.
The rats were trained within the restrain for three to four days prior to the measurements in order to reduce errors and an additional acclimatization period was done to allow the rats to relax prior to the basal blood pressure readings. […] The systolic and diastolic pressures, mean arterial pressure and the heart rate per minute was measured and about 20-25 readings were recorded and timed for approximately 30 minute including an allowance for acclimatization. […] Non-invasive blood pressure Measurement in Mice. […] Humana Press, which is herein incorporated by reference in its entirety.
A non-invasive method was used to measure the blood pressure and heart rate of the rats using the CODA-6-non-invasive machine from Kent Scientific Corporation. The rats were placed in a restraint (rat holder), to reduce agitation, which was then placed on a warming pad of the machine (to reduce anxiety). The occlusion and volume pressure recording cuffs (O-cuff and VPR-cuff respectively) were placed on to the tail of the animal in that order respectively, in order to record the readings. The O-cuff terminates blood flow to the tail and then dilates slowly allowing for the physiological readings to be obtained from the returning blood flow which is determined by the VPR sensor. The VPR-cuff then measured the arterial pulsations as blood returns to the tail and begins to swell. As the tail begins to swell the systolic blood pressure is measured, while the diastolic blood pressure is calculated when swelling stops.
The systolic and diastolic blood pressure, mean arterial pressure and the heart rate per minute was measured and about 20-25 readings were recorded and timed for approximately 30 minutes including acclimatization (FIGS. 17-28). […] Non-invasive blood pressure Measurement in Mice. […] Humana Press, which is herein incorporated by reference in its entirety.

[5] = tested on: normoglycaemic Sprague-Dawley rats; experiment: Oral Glucose Tolerance Test (OGTT), samples administered orally (gavage); format: in vivo; settings: 900 mg/kg BW orally vs water
Protocol: The hypoglycaemic principles of E. camaldulensis were also administered orally. Preliminary OGTT experiments at 200 and 500 mg/kg BW were done, and as a result the dosage was increased to 700 and 900 mg/kg BW. The glucose tolerance curves (GTC) were obtained similarly to the OGTT done via intravenous administration, in that the compound was administered after the fasting blood sample was obtained, however via a oral gavage (FIGS. 14-16).
A comparison was done of the oral administration of the fatty acids with the respective oil on the blood glucose concentration by using the OGTT done in order to deduce their effect. Oleic and palmitic acids are major constituents of olive oil and coconut oil respectively. As such, comparisons were made after OGTTs were carried out to determine the effect of olive oil, coconut oil and the combined product (2.3 olive oil:1 coconut oil), on blood glucose concentration.
An analysis of glucose tolerance curves to compare olive oil, FR2DBS (oleic acid) and the combined oil (FR2DBW; 2.3 olive oil:1 coconut oil) at 900 mg/kg BW vs the control (water) all administered orally, was conducted. […] See also FIG. 29.

[6] = 30 mg/kg BW, 10 minute interval
[7] = 30 mg/kg BW, 15 minute interval
[8] = 30 mg/kg BW intravenously, 90 minute interval (glycaemic peak)
[9] = 50 mg/kg BW, 10 minute interval
[10] = 50 mg/kg BW, 20 minute interval
[11] = 30 mg/kg BW, 20 minute interval

Compound: CCCCCCCCCCCCCCCCCCCC [FR1DBE, eicosane]
- solubility in alcohol [1]: soluble in alcohol
- blood glucose concentration ([2]; 30 mg/kg BW intravenously, 60 minutes interval (fasting region)): 3.7 ± 0.154 mmol/L
- blood glucose concentration ([2]; 30 mg/kg BW intravenously, 90 minute interval (glycaemic peak), listed as fr1dbe): 4.71 ± 1.43 mmol/L
- solubility in water (Solubility): not soluble in water
- blood insulin level (rats [3]; after 3½ hours of administration (210 minute interval)): 0.259 ± 0.03 µg/L
- blood insulin level (rats [3]; after the 90 minute interval): 0.214 ± 0.02 µg/L
- heart rate (rats [4]; [6]): 386 ± 7.91 beats/min
- systolic blood pressure (SBP) (rats [4]; [6]): 118.42±1.87 mmHg
- diastolic blood pressure (DBP) (rats [4]; [7]): 84.0±0.98 mmHg
- systolic blood pressure (SBP) (rats [4]; [7]): 122.21±1.1 mmHg
- effect on mean arterial blood pressure (in words) (rats [4]; 30 mg/kg BW): significantly reduced
- effect on systolic blood pressure (in words) (rats [4]; 30 mg/kg BW): significantly reduced

Compound: CCCCCCCCCCCCCCCC(=O)O [FR1DBY, palmitic acid]
- blood glucose concentration [2, 8]: 5.4 ± 0.163 mmol/L
- difference in blood glucose from the control ([2]; 50 mg/kg BW IV, 90 minute interval, vs DMSO): 1.06 mmol/L
- blood glucose concentration ([2]; 50 mg/kg BW intravenously, 90 minutes interval): 5.26 ± 0.183 mmol/L
- effect on blood glucose concentration (in words) [2]: same effect as Metformin
- effect on blood glucose concentration (in words) ([2]; listed as commercially available palmitic acid): able to significantly lower the blood glucose concentration
- more effective dosage (hypoglycaemic effect) ([2]; IV OGTT, dose comparison): 50 mg/kg BW
- Hypoglycaemic effect compared with control [2]: Significant
- effect on blood glucose level (in words) [5]: able to significantly lower the area under the glucose tolerance curve; also recorded: able to lower the blood glucose concentration
- diastolic blood pressure (DBP) (rats [4]; [9]): 81.93±1.74 mmHg
- heart rate (rats [4]; [9]): 372.4 ± 3.07 beats/min
- mean arterial pressure (MAP) (rats [4]; [9]): 95.67±1.77 mmHg
- systolic blood pressure (SBP) (rats [4]; [9]): 123.42±1.27 mmHg
- systolic blood pressure (SBP) (rats [4]; 50 mg/kg BW, 15 minute interval): 139.0±3.5 mmHg
- diastolic blood pressure (DBP) (rats [4]; [10]): 93.79±3.14 mmHg
- mean arterial pressure (MAP) (rats [4]; [10]): 104.23±3.08 mmHg

Compound: CCCCCCCC/C=C\CCCCCCCC(=O)O [FR2DBS, oleic acid]
- blood glucose concentration [2, 8]: 5.23 ± 0.14 mmol/L
- effect on blood glucose concentration (in words) [2]: significantly lower than the control
- Hypoglycaemic effect compared with control [2]: Significant
- effect on blood glucose level (in words) [5]: able to lower the blood glucose concentration
- effect on blood glucose level (in words) ([5]; listed as oleic acid): able to reduce the post-prandial glucose level
- diastolic blood pressure (DBP) (rats [4]; [6]): 93.42±1.74 mmHg
- heart rate (rats [4]; [6]): 389 ± 7.27 beats/min
- diastolic blood pressure (DBP) (rats [4]; [7]): 93.21±1.33 mmHg
- mean arterial pressure (MAP) (rats [4]; [11]): 100.43±1.39 mmHg
- effect on mean arterial blood pressure (in words) (rats [4]; 30 mg/kg BW): significant decrease
- effect on systolic blood pressure (in words) (rats [4]; 30 mg/kg BW): very low and comparable to the effect caused by captopril

Compound: C[C@H](CS)C(=O)N1CCC[C@H]1C(=O)O [captopril, reference compound]
- diastolic blood pressure (DBP) (rats [4]; [6]): 91.09±1.90 mmHg and 91±1.90 mmHg
- heart rate (rats [4]; [6]): 413 beats/min and 412 beats/min
- mean arterial pressure (MAP) (rats [4]; [6]): 110.86±1.71 mmHg
- systolic blood pressure (SBP) (rats [4]; [6]): 131.35±1.50 mmHg and 130.92±1.50 mmHg and 130.93±1.50 mmHg
- diastolic blood pressure (DBP) (rats [4]; [7]): 91.19±1.37 mmHg
- heart rate (rats [4]; [7]): 401.0±6.28 BPM
- diastolic blood pressure (DBP) (rats [4]; [11]): 93.30±1.58 mmHg
- mean arterial pressure (MAP) (rats [4]; [11]): 105.07±2.06 mmHg
- heart rate (rats [4]; 30 mg/kg BW, first 10 minutes): 399.93±6.91 BPM

Compound: CN(C)C(=N)N=C(N)N [metformin, reference compound]
- decrease in the blood sugar level compared with the control ([2]; 25 mg/kg BW IV, 90 minute interval, vs DMSO): 1.26 mmol/L
- blood glucose concentration ([2]; 25 mg/kg BW intravenously, 90 minute interval): 5.07 ± 0.089 mmol/L and 5.07 ± 0.09 mmol/L
- blood glucose concentration ([2]; 25 mg/kg BW intravenously, 90 minute interval, listed as Metformin): 5.06 ± 0.089 mmol/L and 5.07 ± 0.089 mmol/L
